Test in all cases: relative viability (nuclei count vs DMSO), 5 days (fraction); higher = more cells survive
Compound in the test “Bosutinib + Trametinib”: COc1cc(Nc2c(C#N)cnc3cc(OCCCN4CCN(C)CC4)c(OC)cc23)c(Cl)cc1Cl [Bosutinib] + CC(=O)Nc1cccc(-n2c(=O)n(C3CC3)c(=O)c3c(Nc4ccc(I)cc4F)n(C)c(=O)c(C)c32)c1 [Trametinib] (partner 0.02 µM)
In a few lines: (§1)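 Relative viability was taken as the ratio of nuclei in treated wells to nuclei in vehicle wells. Lung cancer cell lines in 1536-well plates received compounds by pin tool one day after seeding, either one drug alone or a fixed anchor-drug dose plus five library-drug doses (not always all listed) in √10 steps. Nuclei were counted on 4× images after 5 days of treatment, and values are medians of duplicate plates.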

Compound in the test “Bosutinib + Lapatinib”: COc1cc(Nc2c(C#N)cnc3cc(OCCCN4CCN(C)CC4)c(OC)cc23)c(Cl)cc1Cl [Bosutinib] + CS(=O)(=O)CCNCc1ccc(-c2ccc3ncnc(Nc4ccc(OCc5cccc(F)c5)c(Cl)c4)c3c2)o1 [Lapatinib] (partner 2 µM)
In a few lines: as §1

Compound in the test “Bosutinib + AZD7762”: COc1cc(Nc2c(C#N)cnc3cc(OCCCN4CCN(C)CC4)c(OC)cc23)c(Cl)cc1Cl [Bosutinib] + NC(=O)Nc1cc(-c2cccc(F)c2)sc1C(=O)N[C@H]1CCCNC1 [AZD7762] (partner 0.2 µM)
In a few lines:
as §1

Compound in the test “Bosutinib + Vorinostat”: COc1cc(Nc2c(C#N)cnc3cc(OCCCN4CCN(C)CC4)c(OC)cc23)c(Cl)cc1Cl [Bosutinib] + O=C(CCCCCCC(=O)Nc1ccccc1)NO [Vorinostat] (partner 1 µM)
In a few lines: as §1

Compound in another test: COc1cc(Nc2c(C#N)cnc3cc(OCCCN4CCN(C)CC4)c(OC)cc23)c(Cl)cc1Cl [Bosutinib]
In a few lines: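 Lung cancer cell lines were seeded into 1536-well plates, kept overnight at 37 °C and pinned with five library-drug doses (not always all listed) spaced by √10. After 5 days, nuclei were Hoechst-stained, imaged at 4× and counted with MetaXpress. Viability is treated-well nuclei over vehicle-well nuclei, taken as a median across plates. Plates needed control CV below 25% and at least one doubling.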

RERF-LC-KJ: the relative viability in the test with Bosutinib + Trametinib (first compound 0.01 µM) is 0.733; with Bosutinib + Trametinib (first compound 0.03162 µM), 0.809; in the test with Bosutinib + Trametinib (first compound 0.1 µM), 0.902; in the test with Bosutinib + Trametinib (first compound 1 µM), 0.826; in the test with Bosutinib + Lapatinib (first compound 0.01 µM), 0.836; with Bosutinib + Lapatinib (first compound 0.03162 µM) it was 0.832. Moreover, the relative viability in the test with Bosutinib + Lapatinib (first compound 0.1 µM) was 0.878; in the test with Bosutinib + Lapatinib (first compound 1 µM), 0.905; with Bosutinib + AZD7762 (first compound 0.01 µM), 0.979; in the test with Bosutinib + AZD7762 (first compound 0.03162 µM) it was 0.982; in the test with Bosutinib + AZD7762 (first compound 0.1 µM) it was 1.07; in the test with Bosutinib + AZD7762 (first compound 1 µM), 0.877. For the same cell line, the relative viability with Bosutinib + Vorinostat (first compound 0.01 µM) came out at 0.691; with Bosutinib + Vorinostat (first compound 0.03162 µM), 0.705; in the test with Bosutinib + Vorinostat (first compound 0.1 µM), 0.733; with Bosutinib + Vorinostat (first compound 1 µM) it was 0.811; with Bosutinib (0.01 µM), 0.997; with Bosutinib (0.03162 µM), 0.971. The results for the relative viability in the test with Bosutinib (0.1 µM) and in the test with Bosutinib (1 µM) were 0.978 and 0.948, respectively.
HCC-44: the relative viability in the test with Bosutinib + Trametinib (first compound 0.01 µM) amounted to 1.03; in the test with Bosutinib + Trametinib (first compound 0.03162 µM), 1.04; in the test with Bosutinib + Trametinib (first compound 0.1 µM) it was 1.09; with Bosutinib + Trametinib (first compound 1 µM), 1.05; in the test with Bosutinib + Lapatinib (first compound 0.01 µM) it was 1.03; in the test with Bosutinib + Lapatinib (first compound 0.03162 µM), 0.96. Also, the relative viability with Bosutinib + Lapatinib (first compound 0.1 µM) was 0.982; in the test with Bosutinib + Lapatinib (first compound 1 µM), 1.07; with Bosutinib + AZD7762 (first compound 0.01 µM) it was 1.02; in the test with Bosutinib + AZD7762 (first compound 0.03162 µM), 1.01; with Bosutinib + AZD7762 (first compound 0.1 µM) it was 1.01; with Bosutinib + AZD7762 (first compound 1 µM), 1.04. Moreover, the relative viability with Bosutinib + Vorinostat (first compound 0.01 µM) was found to be 1.08; with Bosutinib + Vorinostat (first compound 0.03162 µM), 1.11; with Bosutinib + Vorinostat (first compound 0.1 µM) it was 1.06; with Bosutinib + Vorinostat (first compound 1 µM), 1.16; with Bosutinib (0.01 µM), 0.99; in the test with Bosutinib (0.03162 µM), 1.02. Besides, the values for the relative viability with Bosutinib (0.1 µM) and with Bosutinib (1 µM) were 1.02 and 1.01, respectively.
Consider EPLC-272H, for which the relative viability amounted to 0.297 with Bosutinib + Trametinib (first compound 0.01 µM); 0.281 with Bosutinib + Trametinib (first compound 0.03162 µM); 0.281 with Bosutinib + Trametinib (first compound 0.1 µM); 0.281 with Bosutinib + Trametinib (first compound 1 µM); 1.19 in the test with Bosutinib + Lapatinib (first compound 0.01 µM); 0.931 with Bosutinib + Lapatinib (first compound 0.03162 µM). The relative viability with Bosutinib + Lapatinib (first compound 0.1 µM) stood at 1.02; with Bosutinib + Lapatinib (first compound 1 µM), 1.04; with Bosutinib + AZD7762 (first compound 0.01 µM), 0.225; with Bosutinib + AZD7762 (first compound 0.03162 µM) it was 0.244; in the test with Bosutinib + AZD7762 (first compound 0.1 µM), 0.18; with Bosutinib + AZD7762 (first compound 1 µM), 0.232. Moreover, the relative viability with Bosutinib + Vorinostat (first compound 0.01 µM) stood at 0.601; in the test with Bosutinib + Vorinostat (first compound 0.03162 µM), 0.464; with Bosutinib + Vorinostat (first compound 0.1 µM) it was 0.477; in the test with Bosutinib + Vorinostat (first compound 1 µM), 0.321; in the test with Bosutinib (0.01 µM), 0.982; with Bosutinib (0.03162 µM), 1.01. The relative viability stood at 1.12 with Bosutinib (0.1 µM) and 0.911 in the test with Bosutinib (1 µM).
Regarding NCI-H358, the relative viability with Bosutinib + Trametinib (first compound 0.01 µM) turned out to be 0.132; with Bosutinib + Trametinib (first compound 0.03162 µM), 0.128; with Bosutinib + Trametinib (first compound 0.1 µM), 0.121; in the test with Bosutinib + Trametinib (first compound 1 µM), 0.109; with Bosutinib + Lapatinib (first compound 0.01 µM), 0.558; with Bosutinib + Lapatinib (first compound 0.03162 µM), 0.476. The relative viability was 0.41 in the test with Bosutinib + Lapatinib (first compound 0.1 µM); 0.543 with Bosutinib + Lapatinib (first compound 1 µM); 0.638 with Bosutinib + AZD7762 (first compound 0.01 µM); 0.547 with Bosutinib + AZD7762 (first compound 0.03162 µM); 0.556 with Bosutinib + AZD7762 (first compound 0.1 µM); 0.359 with Bosutinib + AZD7762 (first compound 1 µM). Moreover, the relative viability in the test with Bosutinib + Vorinostat (first compound 0.01 µM) was found to be 0.634; with Bosutinib + Vorinostat (first compound 0.03162 µM) it was 0.697; in the test with Bosutinib + Vorinostat (first compound 0.1 µM), 0.548; with Bosutinib + Vorinostat (first compound 1 µM), 0.483; in the test with Bosutinib (0.01 µM) it was 0.964; with Bosutinib (0.03162 µM), 0.913. Moreover, the figures for the relative viability with Bosutinib (0.1 µM) and with Bosutinib (1 µM) were 0.961 and 0.685, respectively.
Take NCI-H596: the relative viability came to 0.842 with Bosutinib + Trametinib (first compound 0.01 µM); 0.765 with Bosutinib + Trametinib (first compound 0.03162 µM); 0.825 in the test with Bosutinib + Trametinib (first compound 0.1 µM); 0.663 with Bosutinib + Trametinib (first compound 1 µM); 1.07 with Bosutinib + Lapatinib (first compound 0.01 µM); 0.991 in the test with Bosutinib + Lapatinib (first compound 0.03162 µM). The relative viability with Bosutinib + Lapatinib (first compound 0.1 µM) is 1.07; with Bosutinib + Lapatinib (first compound 1 µM), 1.1; with Bosutinib + AZD7762 (first compound 0.01 µM), 1.08; in the test with Bosutinib + AZD7762 (first compound 0.03162 µM), 1.07; with Bosutinib + AZD7762 (first compound 0.1 µM) it was 1.08; in the test with Bosutinib + AZD7762 (first compound 1 µM), 0.918. For the same cell line, the relative viability is 0.685 with Bosutinib + Vorinostat (first compound 0.01 µM); 0.557 with Bosutinib + Vorinostat (first compound 0.03162 µM); 0.509 in the test with Bosutinib + Vorinostat (first compound 0.1 µM); 0.573 in the test with Bosutinib + Vorinostat (first compound 1 µM); 1.11 with Bosutinib (0.01 µM); 1.03 with Bosutinib (0.03162 µM). Besides, the relative viability with Bosutinib (0.1 µM) stood at 0.984; with Bosutinib (1 µM) it was 0.863.
For the cell line NCI-H322M, the relative viability with Bosutinib + Trametinib (first compound 0.01 µM) is 0.486; with Bosutinib + Trametinib (first compound 0.03162 µM), 0.481; in the test with Bosutinib + Trametinib (first compound 0.1 µM) it was 0.492; with Bosutinib + Trametinib (first compound 1 µM), 0.361; with Bosutinib + Lapatinib (first compound 0.01 µM) it was 0.51; in the test with Bosutinib + Lapatinib (first compound 0.03162 µM) it was 0.589. Moreover, the relative viability with Bosutinib + Lapatinib (first compound 0.1 µM) is 0.623; with Bosutinib + Lapatinib (first compound 1 µM), 0.573; with Bosutinib + AZD7762 (first compound 0.01 µM), 0.609; with Bosutinib + AZD7762 (first compound 0.03162 µM), 0.534; with Bosutinib + AZD7762 (first compound 0.1 µM), 0.546; with Bosutinib + AZD7762 (first compound 1 µM), 0.52. For the same cell line, the relative viability in the test with Bosutinib + Vorinostat (first compound 0.01 µM) is 0.751; with Bosutinib + Vorinostat (first compound 0.03162 µM), 0.856; in the test with Bosutinib + Vorinostat (first compound 0.1 µM), 0.857; with Bosutinib + Vorinostat (first compound 1 µM) it was 0.54; with Bosutinib (0.01 µM), 0.889; with Bosutinib (0.03162 µM), 0.985. For the same cell line, the figures for the relative viability in the test with Bosutinib (0.1 µM) and with Bosutinib (1 µM) were 0.98 and 0.576, respectively.

The values are drawn from the supplement of paper PMC10307832.
